Reference: paper PMC6150413 (Molecules : A Journal of Synthetic Chemistry and Natural …, 2017)
Like-named read-outs stand apart in the source and are kept apart here. Peptide text beside a SMILES is read from it.

Legend:
[1] = tested on: E. coli ATCC 25922
Method: (§1) The antimicrobial activities of VIP and its analogues were tested against S. aureus ATCC 25923 and E. coli ATCC 25922 according to the method reported by Wani et al. with slight modification. The final peptide concentrations ranged from 0.5 to 256 μM. The tests were performed in triplicate using 4 replicates for each experiment. In addition, S. aureus ATCC 25923 and E. coli ATCC 25922 (2 × 10^6 CFU/mL) were treated with natural VIP and VIP8 at MIC for 2 h. […] The haemolytic activity of VIP and VIP derivatives were measured using porcine erythrocytes according to previous method. MTT (3-[4,5 dimethylthiozol-2-yl]-2,5-diphenyltetrazolium bromide) was used to determine the cytotoxicity of VIP and its analogue on porcine intestinal epithelial cells IPEC-J2. Stable experiments were conducted with reference to the literature with slightly changes. First, the pH of the mediums was adjusted to acidic (pH 4.0, pH 5.0, and pH 6.0) and basic (pH 8.0, pH 9.0, and pH 10.0) conditions. To investigate the effects of ion strength, the bacterial mediums were supplemented with different concentrations of NaCl (20 mM, 60 mM, and 180 mM) or MgCl2 (1 mM, 25 mM, and 50 mM). Then, bacteria were incubated with VIP, VIP analogues 2 and 8, respectively. After 3 h of incubation, bacterial viability was measured with a Synergy HT multimode reader (BioTek, Winooski, VT, USA) at 600 nm.
(§2) Both the agar diffusion test and modified broth microdilution method were used to evaluate the antimicrobial activity of recombinant expressed VIP8. For the Oxford cup agar diffusion, the sample was added to an Oxford cup, which was then placed on a Mueller-Hinton agar plate containing 1 × 10^5 colony-forming units of S. aureus […]. Chemically-synthesized VIP8 and ampicillin were used as the positive control. The minimal inhibition concentration was determined by the method reported by Wani et al..

[2] = tested on: S. aureus ATCC 25923
Method: as §1, §2

[3] = tested on: 3T3-L1 cells
[4] = E. coli ATCC 25922, peptide 0.5 to 256 μM, triplicate, 4 replicates each, Table 2
[5] = S. aureus ATCC 25923, peptide 0.5 to 256 μM, triplicate, 4 replicates each, Table 2

Structure (SMILES) | MBC (minimum bactericidal concentration) ([1]; ATCC 25922, 2 h) [µM] | MIC (minimum inhibitory concentration) ([1]; ATCC 25922, 2 h) [µM] | MBC (minimum bactericidal concentration) ([2]; ATCC 25923, 2 h) [µM] | MIC (minimum inhibitory concentration) ([2]; ATCC 25923, 2 h) [µM] | Cytotoxicity (in words) [3] | MBC (minimum bactericidal concentration) [1, 4] [µM] | MIC (minimum inhibitory concentration) [1, 4] [µM] | MBC (minimum bactericidal concentration) [2, 5] [µM] | MIC (minimum inhibitory concentration) [2, 5] [µM] | MIC (minimal inhibitory concentration) ([1]; ATCC 25922, 2 h) [µM] | MIC (minimal inhibitory concentration) ([2]; ATCC 25923, 2 h) [µM]
CC[C@H](C)[C@H](NC(=O)[C@H](CO)NC(=O)[C@H](CC(N)=O)NC(=O)[C@H](CC(C)C)NC(=O)[C@H](Cc1ccc(O)cc1)NC(=O)[C@H](CCCCN)NC(=O)[C@H](CCCCN)NC(=O)[C@@H](NC(=O)[C@H](C)NC(=O)[C@H](CCSC)NC(=O)[C@H](CCC(N)=O)NC(=O)[C@H](CCCCN)NC(=O)[C@H](CCCNC(=N)N)NC(=O)[C@H](CC(C)C)NC(=O)[C@H](CCCNC(=N)N)NC(=O)[C@@H](NC(=O)[C@H](Cc1ccc(O)cc1)NC(=O)[C@H](CC(N)=O)NC(=O)[C@H](CCCCN)NC(=O)[C@@H](NC(=O)[C@H](Cc1ccccc1)NC(=O)[C@@H](NC(=O)[C@H](C)NC(=O)[C@H](CCCCN)NC(=O)[C@H](CO)NC(=O)[C@@H](N)Cc1c[nH]cn1)C(C)C)[C@@H](C)O)[C@@H](C)O)C(C)C)C(=O)N[C@@H](CC(C)C)C(=O)N[C@H](C(=O)O)[C@@H](C)O [VIP5] (H-HSKAVFTKNYTRLRKQMAVKKYLNSILT-OH) | >256 | >256 | >256 | >256 | – | – | – | – | – | – | –
CC[C@H](C)[C@H](NC(=O)[C@H](CO)NC(=O)[C@H](CC(N)=O)NC(=O)[C@H](CC(C)C)NC(=O)[C@H](Cc1ccc(O)cc1)NC(=O)[C@H](CCCCN)NC(=O)[C@H](CCCCN)NC(=O)[C@@H](NC(=O)[C@H](C)NC(=O)[C@H](CCSC)NC(=O)[C@H](CCC(N)=O)NC(=O)[C@H](CCCCN)NC(=O)[C@H](CCCNC(=N)N)NC(=O)[C@H](CC(C)C)NC(=O)[C@H](CCCNC(=N)N)NC(=O)[C@@H](NC(=O)[C@H](Cc1ccc(O)cc1)NC(=O)[C@H](CC(N)=O)NC(=O)[C@H](CCCCN)NC(=O)[C@@H](NC(=O)[C@H](Cc1ccccc1)NC(=O)[C@@H](NC(=O)[C@H](C)NC(=O)[C@H](CCCCN)NC(=O)[C@H](CO)NC(=O)[C@@H](N)Cc1c[nH]cn1)C(C)C)[C@@H](C)O)[C@@H](C)O)C(C)C)C(=O)N[C@@H](CC(C)C)C(=O)N[C@@H](CC(N)=O)C(=O)O [VIP2] (H-HSKAVFTKNYTRLRKQMAVKKYLNSILN-OH) | 32 | 16 | 128 | 64 | no cytotoxicity | – | – | – | – | – | –
CC[C@H](C)[C@H](NC(=O)[C@H](CO)NC(=O)[C@H](CC(N)=O)NC(=O)[C@H](CC(C)C)NC(=O)[C@H](CO)NC(=O)[C@H](CCCCN)NC(=O)[C@H](CCCCN)NC(=O)[C@@H](NC(=O)[C@H](C)NC(=O)[C@H](CCSC)NC(=O)[C@H](CCC(N)=O)NC(=O)[C@H](CCCCN)NC(=O)[C@H](CCCNC(=N)N)NC(=O)[C@H](CC(C)C)NC(=O)[C@H](CCCNC(=N)N)NC(=O)[C@@H](NC(=O)[C@H](CO)NC(=O)[C@H](CC(N)=O)NC(=O)[C@H](CC(=O)O)NC(=O)[C@@H](NC(=O)[C@H](Cc1ccccc1)NC(=O)[C@@H](NC(=O)[C@H](C)NC(=O)[C@H](CC(=O)O)NC(=O)[C@H](CO)NC(=O)[C@@H](N)Cc1c[nH]cn1)C(C)C)[C@@H](C)O)[C@@H](C)O)C(C)C)C(=O)N[C@@H](CC(C)C)C(=O)N[C@@H](CC(N)=O)C(=O)O [VIP3] (H-HSDAVFTDNSTRLRKQMAVKKSLNSILN-OH) | – | – | – | – | – | >256 | >256 | >256 | >256 | – | –
CC[C@H](C)[C@H](NC(=O)[C@H](CO)NC(=O)[C@H](CC(N)=O)NC(=O)[C@H](CC(C)C)NC(=O)[C@H](CO)NC(=O)[C@H](CCCCN)NC(=O)[C@H](CCCCN)NC(=O)[C@@H](NC(=O)[C@H](C)NC(=O)[C@H](CCSC)NC(=O)[C@H](CCC(N)=O)NC(=O)[C@H](CCCCN)NC(=O)[C@H](CCCNC(=N)N)NC(=O)[C@H](CC(C)C)NC(=O)[C@H](CCCNC(=N)N)NC(=O)[C@@H](NC(=O)[C@H](CO)NC(=O)[C@H](CC(N)=O)NC(=O)[C@H](CC(=O)O)NC(=O)[C@@H](NC(=O)[C@H](Cc1ccccc1)NC(=O)[C@@H](NC(=O)[C@H](C)NC(=O)[C@H](CC(=O)O)NC(=O)[C@H](CO)NC(=O)[C@@H](N)Cc1c[nH]cn1)C(C)C)[C@@H](C)O)[C@@H](C)O)C(C)C)C(=O)N[C@@H](CC(C)C)C(=O)N[C@H](C(=O)O)[C@@H](C)O [VIP6] (H-HSDAVFTDNSTRLRKQMAVKKSLNSILT-OH) | >256 | >256 | >256 | >256 | – | – | – | – | – | – | –
CC[C@H](C)[C@H](NC(=O)CNC(=O)[C@H](CCC(=O)O)NC(=O)[C@H](CO)NC(=O)[C@@H](NC(=O)[C@H](CCCNC(=N)N)NC(=O)[C@H](CCCCN)NC(=O)[C@H](CCCCN)NC(=O)[C@H](C)NC(=O)[C@H](CO)NC(=O)[C@H](CC(N)=O)NC(=O)[C@H](CCC(=O)O)NC(=O)[C@H](CC(C)C)NC(=O)[C@H](CCCCN)NC(=O)[C@H](CCCCN)NC(=O)[C@H](C)NC(=O)[C@@H](NC(=O)[C@H](CCCCN)NC(=O)[C@H](CO)NC(=O)[C@H](CC(C)C)NC(=O)[C@H](Cc1c[nH]c2ccccc12)NC(=O)[C@@H](N)CO)[C@@H](C)O)[C@@H](C)CC)C(=O)N[C@@H](C)C(=O)N[C@H](C(=O)N[C@@H](C)C(=O)N[C@H](C(=O)N[C@@H](CCC(N)=O)C(=O)NCC(=O)NCC(=O)N1CCC[C@H]1C(=O)N[C@@H](CCCNC(=N)N)C(=O)O)[C@@H](C)CC)[C@@H](C)CC [Cecropin P1, reference compound] (H-SWLSKTAKKLENSAKKRISEGIAIAIQGGPR-OH) | 4 | 2 | 8 | 8 | – | – | – | – | – | 2 | 8
CC[C@H](C)[C@H](NC(=O)[C@H](C)NC(=O)[C@H](C)NC(=O)[C@H](CC(C)C)NC(=O)[C@H](Cc1ccc(O)cc1)NC(=O)[C@H](CCCNC(=N)N)NC(=O)[C@H](CCCNC(=N)N)NC(=O)[C@@H](NC(=O)[C@H](C)NC(=O)[C@H](CC(C)C)NC(=O)[C@H](CCC(N)=O)NC(=O)[C@H](CCCNC(=N)N)NC(=O)[C@H](CCCNC(=N)N)NC(=O)[C@H](CC(C)C)NC(=O)[C@H](CCCNC(=N)N)NC(=O)[C@@H](NC(=O)[C@H](Cc1ccc(O)cc1)NC(=O)[C@H](CC(N)=O)NC(=O)[C@H](C)NC(=O)[C@@H](NC(=O)[C@H](Cc1ccccc1)NC(=O)[C@@H](NC(=O)[C@H](C)NC(=O)[C@H](CC(=O)O)NC(=O)[C@H](CO)NC(=O)[C@@H](N)Cc1c[nH]cn1)C(C)C)[C@@H](C)O)[C@@H](C)O)C(C)C)C(=O)N[C@@H](CC(C)C)C(=O)NCC(=O)N[C@@H](CCCNC(=N)N)C(=O)N[C@@H](CCCNC(=N)N)C(=O)O [VIP7] (H-HSDAVFTANYTRLRRQLAVRRYLAAILGRR-OH) | 8 | 8 | 32 | 16 | – | – | – | – | – | – | –
CC[C@H](C)[C@H](NC(=O)[C@H](CO)NC(=O)[C@H](CC(N)=O)NC(=O)[C@H](CC(C)C)NC(=O)[C@H](Cc1ccc(O)cc1)NC(=O)[C@H](CCCCN)NC(=O)[C@H](CCCCN)NC(=O)[C@@H](NC(=O)[C@H](C)NC(=O)[C@H](CCSC)NC(=O)[C@H](CCC(N)=O)NC(=O)[C@H](CCCCN)NC(=O)[C@H](CCCNC(=N)N)NC(=O)[C@H](CC(C)C)NC(=O)[C@H](CCCNC(=N)N)NC(=O)[C@@H](NC(=O)[C@H](Cc1ccc(O)cc1)NC(=O)[C@H](CC(N)=O)NC(=O)[C@H](CC(=O)O)NC(=O)[C@@H](NC(=O)[C@H](Cc1ccccc1)NC(=O)[C@@H](NC(=O)[C@H](C)NC(=O)[C@H](CC(=O)O)NC(=O)[C@H](CO)NC(=O)[C@@H](N)Cc1c[nH]cn1)C(C)C)[C@@H](C)O)[C@@H](C)O)C(C)C)C(=O)N[C@@H](CC(C)C)C(=O)N[C@H](C(=O)O)[C@@H](C)O [VIP4] (H-HSDAVFTDNYTRLRKQMAVKKYLNSILT-OH) | >256 | >256 | >256 | >256 | – | – | – | – | – | – | –
